“Also recorded” adds a separate entry of the source.
What was measured:
Assay type in all cases: in vivo, Xenopus laevis
[1] = test system: Na^+ influx into the regeneration bud; experiment: Imaging of sodium flux with CoroNa Green indicator dye
Experimental: NaV1.2 is a membrane-bound Na^+ transporter that regulates the influx of Na^+ into cells (Yu and Catterall, 2003). Thus, we examined the functional consequences of Na^+ transport in regeneration using MS-222. […] In intact tails, a few randomly distributed cells appear positive for the CoroNa Green signal relative to the majority of the tail population (FIG. 3A). […] When the amputated tails were treated with the NaV inhibitor, MS-222, the CoroNa Green signal was abolished (FIG. 3C, p<0.02), confirming that inhibition of NaV1.2 function abrogates Na^+ influx into the bud.
At 23 hpa, tadpoles were incubated in 90 μM of CoroNa Green indicator dye (Invitrogen) in 0.1×MMR for 45 minutes and washed twice in 0.1×MMR+30 uM BTS (to immobilize tadpole movement). At 24 hpa, the CoroNa Green signal was excited at […] and fluorescence emission data was collected at […]. Data was analyzed using IPLab software. For induction of Na^+ current, 0.1×MMR was supplemented with sodium gluconate (Sigma) to increase the Na^+ concentration to 90 mM. For refractory period analysis, tails were amputated at st. 47, at 18 hpa, and animals were treated with or without 90 mM Na^+ and 20 μM monensin (Sigma) in 0.1×MMR with 90 μM CoroNa Green for 45 minutes and washed twice in 0.1×MMR+50 uM BTS. Imaging of Vmem using DiBAC4(3) (Invitrogen) was performed exactly as described in (Adams et al., 2007).

[2] = test system: Xenopus tail regeneration during the refractory period; experiment: Tail regeneration assay, tails amputated during the refractory period (stages 45-47)
[3] = test system: Xenopus tadpoles; experiment: Observation of overall development and movement of treated animals; conditions: during pharmacological treatment in the tail assay
From the text: (§1) To characterize the temporal requirement of NaV1.2 function during regeneration, we looked to utilize pharmacological inhibitors of NaV1.2 that will enable us to vary the timing of the functional blockade. First, we determined whether chemical inhibition of NaV1.2 activity recapitulates its loss-of-function phenotype during regeneration. MS-222 (also known as tricaine) is a well-known inhibitor of VGSCs (Hedrick and Winmill, 2003) that blocks inward Na^+ currents (Frazier and Narahashi, 1975). […]. […] Importantly, the μM concentrations used for the tail assays were approximately ten-fold lower than what is usually used for amphibian anesthesia (generally in the mM range). Similar to the NaV1.2 RNAi experiment, the overall development and movement of the animals were normal during pharmacological treatment, and had no effect on primary tail formation during early embryogenesis. We conclude that NaV1.2 function is specifically required for regeneration, and that both pharmacological and molecular loss-of-function to selectively reveal the importance of NaV1.2.

[4] = test system: Xenopus tail regeneration; experiment: Tail regeneration assay, tails amputated at stages 40-41, scored at 7 days; conditions: for tail regeneration: treatment after amputation at st. 40, 7 days
Experimental: Xenopus laevis larvae were cultured using standard protocols approved for the care of experimental organisms. Tails at stages 40-41, or stages 45-47 (refractory period) (Nieuwkoop and Faber, 1967) were amputated under a dissecting microscope using a scalpel blade at the midpoint between the anus and the tip. Tadpoles were cultured in (0.1×MMR±inhibitor) at 22° C. for 7 days and scored for tail regeneration. Drug experiments were carried out at least in duplicate.
To quantify and compare regeneration efficiency of tadpoles treated with different reagents, the “Regeneration Index” (RI) was determined. The RI evaluates the efficiency of regeneration for each treatment and allows for comparison of the effect of various treatments to controls.
Individual animals for each specific treatment were each scored as follows:
Full: complete regeneration (indistinguishable from uncut controls).
Good: robust regeneration with minor defects (e.g., missing fin, curved axis).
Poor: poor regeneration (hypomorphic/defective regenerates).
For each treatment, the percentage of regenerates belonging to each category were calculated, and then multiplied by 3, 2, 1 or 0, respectively for, Full, Good, Poor and None. The resulting R1 for each condition tested ranges from 0 to 300, with 0 corresponding to no regeneration, and 300 for complete regeneration.
Xenopus laevis larvae were cultured via approved protocols (IACUC #M2008-08). Tails at stages 40-41, or stages 45-47 (refractory period) (Nieuwkoop and Faber, 1967) were amputated at the midpoint between the anus and the tip. Tadpoles were cultured in (0.1×MMR±reagent) at 22° C. for 7 days and scored for tail regeneration. […]

[5] = test system: regeneration bud; experiment: Apoptosis in the regeneration bud (data not shown); conditions: MS-222 after tail amputation
From the text: as §1

[6] = test system: Delta; experiment: Expression level of Delta in the regeneration bud (data not shown); conditions: in the presence of MS-222, data not shown
[7] = test system: BMP4; experiment: Expression level of BMP4 in the regeneration bud (data not shown); conditions: in the presence of MS-222, data not shown
From the text: (§2) RNA expression of Notch, Msx1, and BMP components can be observed after 24 hpa in the regenerating tail tissues. We performed in situ hybridization using gene-specific RNA probes to examine the expression patterns of Notch and Msx1 in the regeneration bud after treatment with MS-222. In wild-type regeneration buds at 48 hpa, Notch1 is normally expressed in the neural ampulla and in the mesenchymal region of the regeneration bud (FIGS. 4F and 4H). […] At 48 hpa, Msx1 was expressed in the neural ampulla and at the epithelial edge of the regenerating tail tip (FIGS. 4J and 4L). When NaV activity was blocked, Msx1 expression was abolished (FIGS. 4K and 4M).

[8] = test system: Notch1; experiment: RNA in situ hybridization of Notch1 in the regeneration bud; conditions: 48 hpa, MS-222 after amputation
From the text: as §2
(§3) Embryos were fixed in MEMFA (Sive et al., 2000) and dehydrated in methanol. In situ hybridization was carried out according to standard protocols (Harland, 1991) with probes to: NaV1.2 (AY121368), NaV1.5 (Armisen et al., 2002), Notch1 (Coffman et al., 1990), and Msx1 (Feledy et al., 1999).

[9] = test system: membrane voltage of regeneration bud cells; experiment: Imaging of membrane voltage with the voltage dye DiBAC4(3); conditions: 24 hpa, versus control
From the text: To gain a detailed mechanistic understanding of NaV1.2 activity, we examined the consequences of modulating Na^+ ion transport in the regenerating tail. During development, the intact tail is hyper-polarized with a few depolarized cells that are randomly distributed (Adams et al., 2007). However, after tail amputation, the presumptive regeneration bud becomes highly depolarized. […]. If the bud is polarized at this timepoint, then regeneration proceeds normally; if the bud remains depolarized (as when V-ATPase is inactivated, either during the refractory period or by Concanamycin), then regeneration fails. Because VGSC activity is also a well-known major determinant of a cell's membrane potential level, we hypothesized that loss of NaV1.2 activity could alter the membrane voltage state of the regeneration buds at 24 hpa.
At 23 hpa, tadpoles were incubated in 90 μM of CoroNa Green indicator dye (Invitrogen) in 0.1×MMR for 45 minutes and washed twice in 0.1×MMR+30 uM BTS (to immobilize tadpole movement). At 24 hpa, the CoroNa Green signal was excited at […] and fluorescence emission data was collected at […]. Data was analyzed using IPLab software. For induction of Na^+ current, 0.1×MMR was supplemented with sodium gluconate (Sigma) to increase the Na^+ concentration to 90 mM. For refractory period analysis, tails were amputated at st. […]

[10] = test system: H3P-positive (mitotic) cells; experiment: Anti-H3P immunohistochemistry of mitotic cells in amputated tails; conditions: 48 hpa, versus control siblings
From the text: To understand the cellular basis for regenerative failure in animals with loss of NaV1.2 function, we examined proliferation in MS-222-treated amputated tails. During development, mitotic cells are observed to be randomly located in the growing tail. […]. We quantified the number and distribution of proliferating cells in regenerating tails at 48 hpa using an antibody to phosphorylated Histone 3B (H3P), a marker of the G2/M transition of the cell cycle that identifies mitotic cells in Xenopus and many other systems (Adams et al., 2007; Saka and Smith, 2001). […]. Many H3P-positive cells are seen in the wild-type regeneration bud (FIG. 3E) but very few are detected in MS-222 treated buds (FIG. 3F).
(§4) Xenopus embryos were fixed overnight in MEMFA, heated for 2 hrs at 65° C. in 50% formamide (to inactivate endogenous alkaline phosphatases), permeabilized in PBTr+0.1% Triton X100 for 30 min, and processed for immunohistochemistry using alkaline phosphatase secondary antibody (Levin, 2004) until signal was optimal and background minimal (usually 12 hrs). The expression profiles represent consensus patterns obtained from the analysis of 8-12 embryos at each stage. Pan-anti-NaV (Sigma S-8809), anti-acetylated a-tubulin (Sigma #T6793), and anti-phospho-H3 (Upstate #05-598) antibodies were used at 1:1000.

[11] = test system: axons of the regenerate; experiment: Acetylated α-tubulin staining of axons in tail regenerates; conditions: 72 hpa (3-day) tails, MS-222 treated
From the text: It has long been known that regenerative growth requires proper innervation (Singer, 1952, 1965). Thus, we asked whether NaV1.2 regulates neural regeneration by examining the neuronal pattern in the amputated tail of tadpoles treated with MS-222. In normal 3-day old tail regenerates, axons appear in bundles that grow and concentrate to the end of the regenerate, in a direction parallel to the anterior-posterior axis (FIG. 3G).
as §4

[12] = test system: Msx1; experiment: RNA in situ hybridization of Msx1 in the regeneration bud; conditions: 48 hpa, MS-222 after amputation
From the text: as §2, §3

[13] = test system: BMP2; experiment: Expression level of BMP2 in the regeneration bud (data not shown); conditions: in the presence of MS-222, data not shown
From the text: as §2

[14] = test system: NaV1.2 protein; experiment: Immunohistochemistry of NaV1.2 protein in the regeneration bud
From the text: In order to better understand the role of NaV1.2, we examined its potential relationships with known regenerative pathways. First, we investigated the pathways potentially regulating NaV1.2 expression. […] However, in amputated tails treated with Concanamycin, a specific inhibitor of V-ATPase activity (Huss et al., 2002) that blocks regeneration (Adams et al., 2007), the expression of NaV1.2 protein was absent at 24 and 48 hpa (FIGS. 4A-4C). […] We next examined NaV1.2 protein expression during the refractory stages, an endogenous period during development in which tadpoles temporarily lose the ability of caudal regeneration (Beck et al., 2003). NaV1.2 protein was not detected in 24-hour tail stumps amputated during this non-regenerative state (FIG. 4D).
as §4

[15] = 24 hpa regeneration bud, MS-222 treated

## CC[C@@]1([C@@H]2O[C@@H]([C@H]3O[C@@](O)(CO)[C@H](C)C[C@@H]3C)C[C@@H]2C)CC[C@H]([C@]2(C)CC[C@]3(C[C@H](O)[C@@H](C)[C@@H]([C@@H](C)[C@@H](OC)[C@H](C)C(=O)O)O3)O2)O1 [monensin]
[1]; refractory tails at 19 hpa, after one hour of 20 uM monensin in 90 mM Na^+ medium
  CoroNa Green signal at the amputation site: strong CoroNa Green fluorescence; also recorded: significantly stronger CoroNa Green signal
[2]; 20 uM monensin in medium containing 90 mM Na^+ for one hour at 18 hpa, refractory controls 11.5, n=44
  Regeneration Index (RI): 59.1
[2]; 20 μM monensin with 90 mM Na^+, 1 hour at 18 hpa
  increase of regeneration over the control: 3 fold
[2]; 20 μM monensin with 90 mM Na^+, 1 hour at 18 hpa, 7 dpa, controls 11%
  tadpoles with induced regeneration: 36%
[2]; 20 μM monensin with 90 mM Na^+, 1 hour at 18 hpa, share of the regenerating tails
  regenerated tails showing good to full regeneration: 45%
[2]; monensin alone, without high extracellular Na^+, data not shown
  regenerative ability: did not improve regenerative ability

## insulin
[2]; insulin at 0 hours post amputation, assayed at 7 days, control 16%
  animals showing good or full regeneration: 39%
[2]; insulin at 0 hours post amputation, assayed at 7 days, control RI=62, RI of 300 = full regeneration
  Regeneration Index (RI): 118

## CN[C@@H]1C[C@H]2O[C@@](C)([C@@H]1OC)n1c3ccccc3c3c4c(c5c6ccccc6n2c5c31)C(=O)NC4 [Staurosporine]
[3]
  overall development and movement of the animals: otherwise unaffected
[4]; 10 nM STS on amputated tails
  regenerative ability relative to controls: 28 % of controls
[4]
  tail regeneration: strong reduction

## CCOC(=O)c1cccc(N)c1.CS(=O)(=O)O [MS-222]
[3]
  overall development and movement of the animals: normal
[5]
  apoptosis in the bud: did not induce significant apoptosis
[1]; [15]
  CoroNa Green signal / Na^+ entry into the bud: abolished; also recorded: blocks Na^+ entry into the bud
  decrease in CoroNa Green signal versus control buds: 70%
[6]
  level of Delta: greatly reduced
[7]
  level of BMP4: greatly reduced
[4]; MS-222 (250 μM per FIG. 2B) immediately after tail amputation, scored at 7 days, RI 0-300, controls RI=265
  Regeneration Index (RI): 62
[4]; MS-222 added at 48 hpa, after regenerative outgrowth has begun
  effect on regeneration: no effect
[4]; MS-222 for the first 48 hpa
  tails that failed to regenerate: 78%
[4]; MS-222 for the first 24 hours post amputation
  tadpoles in which tail regeneration was prevented: 45%
[4]; MS-222 through the entire 7 days of the assay
  tails with inhibited regeneration: 82%
[4]
  tail regeneration: failed to regenerate; also recorded: inhibition of regeneration is dosage-dependent
[8]
  Notch1 RNA expression: greatly reduced; also recorded: greatly down-regulated and mis-localized
[9]
  change of membrane voltage in regeneration bud cells: did not observe any changes in membrane voltage
[10]
  decrease in the number of mitotic cells in the regeneration bud region: 90%
[11]
  axon pattern and quantity in the regenerate: axons to extend circumferentially along the edge of the regeneration bud; also recorded: overall quantity of neurons appeared to be reduced
[12]
  Msx1 RNA expression: abolished; also recorded: absent
[13]
  level of BMP2: greatly reduced

## C/C=C/[C@H]1O[C@@](O)([C@@H](C)[C@H](O)[C@H](C)[C@H]2OC(=O)/C(OC)=C/C(C)=C/[C@@H](C)[C@@H](O)[C@@H](CC)[C@@H](O)[C@H](C)C/C(C)=C/C=C/[C@@H]2OC)C[C@@H](O)[C@@H]1C [Concanamycin]
[14]; 24 hpa
  NaV1.2 protein expression in the regeneration bud: absent
[14]; 48 hpa
  NaV1.2 protein expression in the regeneration bud: absent

— patent US20120232000A1, “METHODS AND COMPOSITIONS FOR PROMOTING REGENERATION BY INCREASING INTRACELLULAR SODIUM CONCENTRATION” (priority 2009, published 2012)
